The record followed here is patent US11952349B2, “Anti-cancer nuclear hormone receptor-targeting compounds” (Nuvation Bio Inc., priority 2019, dated 2024).

In assay [1] the test system is LNCap cells. Description: Cell viability assay (CellTiterGlo, 6 days) LNCap. The assay is classed as cell-based. Conditions: Homo sapiens, 144 h, Table 7. The protocol:
(§1) Cell viability assay: LNCap, 22Rv1, and T47D cells were seeded at a density of 1500-2000 cells/well in 96 well plates, and a ‘T0’ (timepoint 0) was included along with the assay plate. The plates were then incubated at 37° C., 5% CO2 in a cell culture incubator overnight. On the next day, the ‘T0’ plate was assayed using CellTiterGlo (Promega, Inc) according to the manufacturer's instructions. The appropriate compounds were diluted in DMSO and added to the assay plate (final DMSO concentration of 0.2%) on the next day. The assay plates were incubated for 6 days at 37° C., 5% CO2. After the incubation period, the plates were assayed using CellTiterGlo (Promega, Inc) according to the manufacturer's instructions and luminescence was read on the EnVision plate reader. Inhibition the tested compounds was determined by the following formula: Inhibition rate (%)=(1−(RLU compound−RLU day0)/(RLU control−RLU day0))*100%. GraphPadPrism was used to analyze the data and determine absolute IC50 values.

The target in assay [2] is T1, AR, cytosol from LnCaP cells (Homo sapiens, UniProt P10275, T878A).
T1 construct: AR in LNCaP cytosol was used; endogenous in cells; host or cells: LNCaP cells (cytosol)
T1 sequence (P10275 1-920 T878A): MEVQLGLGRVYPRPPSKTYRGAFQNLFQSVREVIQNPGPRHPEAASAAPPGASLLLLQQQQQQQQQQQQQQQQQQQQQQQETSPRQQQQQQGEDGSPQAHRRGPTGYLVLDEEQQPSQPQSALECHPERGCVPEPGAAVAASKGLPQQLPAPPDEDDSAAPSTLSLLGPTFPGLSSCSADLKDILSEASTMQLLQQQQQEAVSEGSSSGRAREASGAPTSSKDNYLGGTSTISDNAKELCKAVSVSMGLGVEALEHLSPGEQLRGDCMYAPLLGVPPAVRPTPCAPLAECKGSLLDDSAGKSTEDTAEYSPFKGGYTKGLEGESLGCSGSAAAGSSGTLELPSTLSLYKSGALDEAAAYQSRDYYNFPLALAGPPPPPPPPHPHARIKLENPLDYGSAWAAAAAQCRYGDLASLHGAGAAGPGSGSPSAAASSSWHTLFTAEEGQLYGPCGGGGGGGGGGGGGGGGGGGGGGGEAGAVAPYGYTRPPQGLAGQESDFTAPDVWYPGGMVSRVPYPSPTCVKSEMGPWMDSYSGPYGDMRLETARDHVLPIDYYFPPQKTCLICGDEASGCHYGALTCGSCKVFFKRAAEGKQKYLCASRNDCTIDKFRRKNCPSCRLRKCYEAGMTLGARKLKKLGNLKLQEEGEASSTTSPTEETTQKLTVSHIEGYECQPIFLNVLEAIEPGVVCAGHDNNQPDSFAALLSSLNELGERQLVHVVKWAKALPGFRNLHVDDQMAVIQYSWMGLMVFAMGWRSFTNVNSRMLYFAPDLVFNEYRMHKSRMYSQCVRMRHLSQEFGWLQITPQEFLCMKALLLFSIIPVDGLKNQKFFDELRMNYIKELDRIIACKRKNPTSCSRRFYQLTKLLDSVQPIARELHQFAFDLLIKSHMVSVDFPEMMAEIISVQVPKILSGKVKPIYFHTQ
Description: AR binding assay, 3H-R1881 (Biological Example 2). The protocol:
AR binding assay: To assess AR binding, test compound (top dose […], 4 fold serial dilution, 8 point dose response) and control (progesterone) were transferred to the assay plate. Cytosol from LnCaP cells was added to the plate, followed by addition of radiolabeled ^3H-R1881 at a final concentration of 1 nM. The plate was sealed, and the reaction was incubated at 300 rpm at 4° C. for 24 hrs. Radioligand absorption buffer (10 mM Tris-HCl, pH 7.4; 1.5 mM EDTA; 1 mM DTT; 0.25% charcoal; 0.0025% dextran) was then added to the plate, mixed, and incubated at 4° C. for 15 minutes. The plate was then centrifuged at 3000 rpm for 30 minutes at 4° C. The supernatant was transferred to the scint-tube and Tri-carb was used for scintillation counting. The data was analyzed using GraphPadPrism v5.0 and binding IC50 was determined as the concentration where 50% inhibition of radioligand binding was observed.

For assay [3], the target named is T2, full-length androgen receptor (Homo sapiens, UniProt P10275).
T2 construct: HEK293 cells stably expressing the full-length androgen receptor; expressed in transfected cells
T2 sequence (P10275 1-920): T1 sequence (P10275 1-920 T878A) with A878T
Description: AR antagonism assay (HEK293, testosterone 1 nM, Steady-glo). The assay is classed as cell-based. The protocol: AR antagonism assay: To evaluate AR antagonist activity, test compound was added to the assay plate (top dose 10 μM, 3 fold serial dilution, 10 point dose response). HEK293 cells stably expressing the full-length androgen receptor were seeded at a density of 20000 cells/well in the assay plate. The assay plate was then incubated at room temperature for 10 minutes and at 37° C., 5% CO2 for 20 minutes. Testosterone was added to the assay plate at 1 nM final concentration and the assay plate was incubated at 37° C., 5% CO2 for 20 h. After the incubation period, Steady-glo was added to the assay plate and mixed at room temperature for 20 minutes on an orbital shaker, before reading out on the EnVision plate reader.

The subject of assay [4] is 22Rv1 cells. Description: Cell viability assay (CellTiterGlo, 6 days) 22Rv1. The assay is classed as cell-based. The settings on record: Homo sapiens, 22Rv1, 144 h; Table 7; cell viability, 6 days; read-out: 22RV1. The method, then:
as §1

Positions count from the first letter of the chain named.

Take `C[C@]12C=CC(=O)C[C@@H]1CC[C@@H]1[C@@H]2CC[C@]2(C)[C@@H](OCCCCCC(=O)N3CCN(C(=O)c4cc(Cc5n[nH]c(=O)c6ccccc56)ccc4F)CC3)CC[C@@H]12` [Compound 1410, 4-(3-(4-(6-((5S,8R,9S,10R,13S,14S,17S)-10,13-dimethyl-3-oxo-4,5,6,7,8,9, 10,11,12,13,14,15,16,17-tetradecahydro-3H-cyclopenta[a]phenanthren-17-yloxy)hexanoyl)piperazine-1-carbonyl)-4-fluorobenzyl)phthalazin-1(2H)-one]: the IC50 in assay [1] was 100 to 1000 nM; in assay [2], 10 to 100 nM; in assay [3] it was 100 to 1000 nM; in assay [4], 100 to 1000 nM.
